tested on: TEAD reporter-containing human breast cancer cell line MCF7; assay: TEAD reporter (luciferase) assay; format: cell-based; conditions: TEAD reporter MCF7 cells, 24 hours treatment, 1% serum media
Description: The TEAD reporter-containing human breast cancer cell line MCF7 (60618, BPS bioscience) was cultured according to the manufacturer's instructions. Cells were plated in 96-well white plates at a density of 30,000 per well and incubated overnight. The following day cells were treated with small molecules in 1% serum media (0.1% v/v DMSO). After 24 hours of the treatment, cell viability was evaluated by using CCK-8 reagent (CK04, Dojindo) and measuring absorbance at 450 nm. Then, the assay for luciferase activity was performed using Dual-Glo® Luciferase Assay System (Promega, E2940) following the manufacturer's instructions. Luminescence intensity was measured and the potency of the compounds was determined by IC50 value generated from non-linear regression analysis of the dose-response curves.
IC50 for luciferase activity are shown in the Table 1 below and designated within the following ranges. [+++: ≤0.1 μM, ++: >0.1 μM to ≤1 μM, +: >1 μM to ≤10 μM, −: >10 μM]

IC50 [µM]	SMILES
0.1 to 1	C=CC(=O)Nc1ccc2c(c1)c(/C=C/C1CCC(F)(F)CC1)nn2C(C)C [Compound 5, (E)-N-(3-(2-(4,4-Difluorocyclohexyl)vinyl)-1-isopropyl-1H-indazol-5-yl)acrylamide]
1 to 10	C=CC(=O)Nc1cnc2c(c1)c(/C=C/c1ccc(Cl)cc1)cn2C1CCCC1 [Compound 10, (E)-N-(3-(4-Chlorostyryl)-1-cyclopentyl-1H-pyrrolo[2,3-b]pyridin-5-yl)acrylamide]
1 to 10	CN(C)C/C=C/C(=O)Nc1cnc2c(c1)c(-c1ccc(C(F)(F)F)cc1)cn2C [Example 120, (E)-4-(Dimethylamino)-N-(1-methyl-3-(4-(trifluoromethyl)phenyl)-1H-pyrrolo[2,3-b]pyridin-5-yl) but-2-enamide 2,2,2-trifluoroacetate]
≤ 0.1	C=CC(=O)Nc1ccc2c(c1)c(C1CCCCC1)cn2C [Example 123, N-(3-Cyclohexyl-1-methyl-1H-indol-5-yl)acrylamide]
≤ 0.1	C=CC(=O)Nc1ccc2c(c1)c(C1=CCC(C)(C)CC1)cn2C [Example 124, N-(3-(4,4-dimethylcyclohex-1-en-1-yl)-1-methyl-1H-indol-5-yl)acrylamide]
1 to 10	C=CC(=O)Nc1ccc2c(c1)c(C1=CCC(OC)CC1)cn2C (stereo not drawn) [Example 125, N-(3-(4-Methoxycyclohex-1-en-1-yl)-1-methyl-1H-indol-5-yl)acrylamide]
> 10	C=CC(=O)Nc1ccc2c(c1)c(C1CCC(OC)CC1)cn2C (stereo not drawn) [Example 126, N-(3-(4-Methoxycyclohexyl)-1-methyl-1H-indol-5-yl)acrylamide]
1 to 10	C=CC(=O)Nc1cnc2c(c1)c(-c1ccc(Cl)c(F)c1)cn2C(F)F [Example 133, N-(3-(4-Chloro-3-fluorophenyl)-1-(difluoromethyl)-1H-pyrrolo[2,3-b]pyridin-5-yl)acrylamide]
0.1 to 1	C=CC(=O)Nc1cnc2c(c1)c(-c1cccc(C(F)(F)F)c1)cn2C(F)F [Example 134, N-(1-(Difluoromethyl)-3-(3-(trifluoromethyl)phenyl)-1H-pyrrolo[2,3-b]pyridin-5-yl)acrylamide]
1 to 10	C=CC(=O)Nc1cnc2c(c1)c(-c1ccc(F)c(Cl)c1)cn2C(F)F [Example 135, N-(3-(3-Chloro-4-fluorophenyl)-1-(difluoromethyl)-1H-pyrrolo[2,3-b]pyridin-5-yl)acrylamide]
≤ 0.1	C=CC(=O)Nc1cnc2c(c1)c(Cc1cccc(Cl)c1)cn2C [Example 136, N-(3-(3-Chlorobenzyl)-1-methyl-1H-pyrrolo[2,3-b]pyridin-5-yl)acrylamide]
≤ 0.1	C=CC(=O)Nc1cnc2c(c1)c(C=C1CCCCC1)cn2C [Example 137, N-(3-(Cyclohexylidenemethyl)-1-methyl-1H-pyrrolo[2,3-b]pyridin-5-yl)acrylamide]
≤ 0.1	C=CC(=O)Nc1cnc2c(c1)c(CC1CCCCC1)cn2C [Example 138, N-(3-(Cyclohexylmethyl)-1-methyl-1H-pyrrolo[2,3-b]pyridin-5-yl)acrylamide]

tested on: MSTO-211H cells; assay: Proliferation assay (EdU incorporation), MSTO-211H; format: cell-based; conditions: Homo sapiens, 72 h, YAP-driven MSTO-211H (LATS1 mutation), 3 days with inhibitor, 1% serum
Description: The anti-proliferative activity of TEAD inhibitors was evaluated in cells with different properties for YAP; “YAP-driven” cells (MSTO-211H, NCI-H226) in which YAP located in the nucleus and “YAP-independent” cells (OCM1, NCI-H28) where YAP located in the cytoplasm. […] TEAD inhibitors were evaluated with cell lines with these YAP profiling and mutational status.
The next day, replace it with cell starvation medium containing 1% serum. After one day of growth in the starvation medium, the cells were incubated for 3 days with TEAD inhibitors in a concentration range of 0.01-10 μM. After 3 days, EdU (Invitrogen) at a concentration of 10 µM was added to the starvation medium and incubated for an additional 24 hours. After removing the starvation medium remaining in each well, wash the wells with PBS. Cells were fixed with 4% paraformaldehyde (Electron microscopy sciences) at room temperature for 20 minutes. After removing the fix solution remaining in each well, wash the wells with PBS and the cells were permeabilized for 40 minutes by adding 0.5% triton X-100 (Sigma Aldrich). After removing the permeabilization solution remaining in each well, the EdU labeling was performed according to the instructions of the manufacturer's instructions (Click-iT™ Cell Reaction Buffer Kit, Invitrogen). After the Click reaction for EdU labeling, nuclei were stained with […] (Thermo Scientific) for total cell count analysis. After plate preparation for detection, Image acquisition was performed using the ImageXpress Micro XLS. The acquired images were analyzed using MetaXpress software (molecular devices). Through this experimental method, it was possible to confirm the inhibitory activity of TEAD inhibitors by detection EdU incorporated into proliferating cells.
IC50 for cell proliferation inhibition activity are shown in the Table 2 below and designated within the following ranges. [+++: ≤0.1 μM, ++: >0.1 μM to ≤1 μM, +: >1 μM to ≤10μ, −: >10 μM]

SMILES	IC50 [µM]
C=CC(=O)Nc1ccc2c(c1)c(/C=C/C1CCC(F)(F)CC1)nn2C(C)C [Compound 5, (E)-N-(3-(2-(4,4-Difluorocyclohexyl)vinyl)-1-isopropyl-1H-indazol-5-yl)acrylamide]	0.1 to 1
C=CC(=O)Nc1cnc2c(c1)c(/C=C/c1ccc(Cl)cc1)cn2C1CCCC1 [Compound 10, (E)-N-(3-(4-Chlorostyryl)-1-cyclopentyl-1H-pyrrolo[2,3-b]pyridin-5-yl)acrylamide]	0.1 to 1
C=CC(=O)Nc1ccc2c(/C=C/C3CCC(F)(F)CC3)cn(C)c2c1 [Compound 13, (E)-N-(3-(2-(4,4-Difluorocyclohexyl)vinyl)-1-methyl-1H-indol-6-yl)acrylamide]	1 to 10
C=CC(=O)Nc1ccc2c(c1)c(/C=C/c1ccc(Cl)cc1)c(C)n2C [Compound 14, (E)-N-(3-(4-Chlorostyryl)-1,2-dimethyl-1H-indol-5-yl)acrylamide]	0.1 to 1
C=CC(=O)Nc1cnc2c(c1)c(/C=C/c1cccc(F)c1)cn2C [Compound 40, (E)-N-(3-(3-Fluorostyryl)-1-methyl-1H-pyrrolo[2,3-b]pyridin-5-yl)acrylamide]	0.1 to 1
C=CC(=O)Nc1cnc2c(c1)c(/C=C/c1cccc(Cl)c1)cn2C [Compound 41, (E)-N-(3-(3-Chlorostyryl)-1-methyl-1H-pyrrolo[2,3-b]pyridin-5-yl)acrylamide]	≤ 0.1
C=CC(=O)Nc1cnc2c(c1)c(/C=C/c1ccc(OC)c(F)c1)cn2C [Compound 42, (E)-N-(3-(3-Fluoro-4-methoxystyryl)-1-methyl-1H-pyrrolo[2,3-b]pyridin-5-yl)acrylamide]	0.1 to 1
C=CC(=O)Nc1cnc2c(c1)c(/C=C/c1ccc(C(C)C)cc1)cn2C [Compound 43, (E)-N-(3-(4-Isopropylstyryl)-1-methyl-1H-pyrrolo[2,3-b]pyridin-5-yl)acrylamide]	0.1 to 1
C=CC(=O)Nc1cnc2c(c1)c(/C=C/c1ccc(F)c(F)c1)cn2C [Compound 44, (E)-N-(3-(3,4-Difluorostyryl)-1-methyl-1H-pyrrolo[2,3-b]pyridin-5-yl)acrylamide]	≤ 0.1
C=CC(=O)Nc1cnc2c(c1)c(/C=C/c1ccc(C(F)(F)F)cc1)cn2C [Compound 46, (E)-N-(1-Methyl-3-(4-(trifluoromethyl)styryl)-1H-pyrrolo[2,3-b]pyridin-5-yl)acrylamide]	0.1 to 1
C=CC(=O)Nc1cnc2c(c1)c(/C=C/C1CCCCC1)cn2C [Compound 49, (E)-N-(3-(2-Cyclohexylvinyl)-1-methyl-1H-pyrrolo[2,3-b]pyridin-5-yl)acrylamide]	≤ 0.1
C=CC(=O)Nc1cnc2c(c1)c(-c1cccc(OCc3cccc(Cl)c3)c1)cn2C [Compound 52, N-(3-(3-((3-Chlorobenzyl)oxy)phenyl)-1-methyl-1H-pyrrolo[2,3-b]pyridin-5-yl)acrylamide]	0.1 to 1
C=CC(=O)N(C)c1cnc2c(c1)c(/C=C/C1CCC(F)(F)CC1)cn2C [Example 66, (E)-N-(3-(2-(4,4-Difluorocyclohexyl)vinyl)-1-methyl-1H-pyrrolo[2,3-b]pyridin-5-yl)-N-methylacrylamide]	0.1 to 1
C=CC(=O)N(Cc1ccccc1)c1cnc2c(c1)c(/C=C/c1ccc(Cl)cc1)cn2C [Example 67, (E)-N-Benzyl-N-(3-(4-chlorostyryl)-1-methyl-1H-pyrrolo[2,3-b]pyridin-5-yl)acrylamide]	1 to 10
C=CC(=O)N(Cc1ccncc1)c1cnc2c(c1)c(/C=C/c1ccc(Cl)cc1)cn2C [Example 68, (E)-N-(3-(4-Chlorostyryl)-1-methyl-1H-pyrrolo[2,3-b]pyridin-5-yl)-N-(pyridin-4-ylmethyl)acrylamide]	1 to 10
C=CC(=O)Nc1cnc2ccn(CC3CCCCC3)c2c1 [Example 77, N-(1-(Cyclohexylmethyl)-1H-pyrrolo[3,2-b]pyridin-6-yl)acrylamide]	0.1 to 1
C=CC(=O)Nc1cnc2c(c1)c(-c1cccc(N3CCCCC3)c1)cn2C [Example 88, N-(1-Methyl-3-(3-(piperidin-1-yl)phenyl)-1H-pyrrolo[2,3-b]pyridin-5-yl)acrylamide]	0.1 to 1
C=CC(=O)Nc1cnc2c(c1)c(-c1ccc(C(F)(F)F)cc1)cn2CC [Example 95, N-(1-Ethyl-3-(4-(trifluoromethyl)phenyl)-1H-pyrrolo[2,3-b]pyridin-5-yl)acrylamide]	0.1 to 1
C=CC(=O)Nc1cnc2c(c1)c(-c1ccc(C(F)(F)F)cc1)cn2C(C)C [Example 96, N-(1-isopropyl-3-(4-(trifluoromethyl)phenyl)-1H-pyrrolo[2,3-b]pyridin-5-yl)acrylamide]	0.1 to 1
C=CC(=O)Nc1cnc2c(c1)c(-c1ccc(CCC)cc1)cn2C [Example 100, N-(1-Methyl-3-(4-propylphenyl)-1H-pyrrolo[2,3-b]pyridin-5-yl)acrylamide]	≤ 0.1
C=CC(=O)Nc1cnc2c(c1)c(-c1ccc(F)cc1)cn2C [Example 103, N-(3-(4-Fluorophenyl)-1-methyl-1H-pyrrolo[2,3-b]pyridin-5-yl)acrylamide]	0.1 to 1
C=CC(=O)Nc1cnc2c(c1)c(-c1ccc(C)cc1)cn2C [Example 104, N-(1-Methyl-3-(p-tolyl)-1H-pyrrolo[2,3-b]pyridin-5-yl)acrylamide]	0.1 to 1
C=CC(=O)Nc1cnc2c(c1)c(-c1ccc(C(F)(F)F)cc1)cn2C(F)F [Example 129, N-(1-(Difluoromethyl)-3-(4-(trifluoromethyl)phenyl)-1H-pyrrolo[2,3-b]pyridin-5-yl)acrylamide]	0.1 to 1

Source: patent US20250282735A1, “BICYCLE COMPOUNDS AS TEAD INHIBITOR” (DONG-A ST CO., LTD., priority 2022, published 2025)
